Results on 20 molecules are retold here after paper PMC9516332 (Frontiers in Oncology, 2022).

What all share (assay): Kinase panel profiling at 1 µmol/L (MSA or IMAP), percentage inhibition
Assay type in all cases: biochemical

Assay [1] concerns the target T1, panel of 255 wild-type kinases (Homo sapiens, UniProt Q8TDC3).
T1 sequence (Q8TDC3 1-778): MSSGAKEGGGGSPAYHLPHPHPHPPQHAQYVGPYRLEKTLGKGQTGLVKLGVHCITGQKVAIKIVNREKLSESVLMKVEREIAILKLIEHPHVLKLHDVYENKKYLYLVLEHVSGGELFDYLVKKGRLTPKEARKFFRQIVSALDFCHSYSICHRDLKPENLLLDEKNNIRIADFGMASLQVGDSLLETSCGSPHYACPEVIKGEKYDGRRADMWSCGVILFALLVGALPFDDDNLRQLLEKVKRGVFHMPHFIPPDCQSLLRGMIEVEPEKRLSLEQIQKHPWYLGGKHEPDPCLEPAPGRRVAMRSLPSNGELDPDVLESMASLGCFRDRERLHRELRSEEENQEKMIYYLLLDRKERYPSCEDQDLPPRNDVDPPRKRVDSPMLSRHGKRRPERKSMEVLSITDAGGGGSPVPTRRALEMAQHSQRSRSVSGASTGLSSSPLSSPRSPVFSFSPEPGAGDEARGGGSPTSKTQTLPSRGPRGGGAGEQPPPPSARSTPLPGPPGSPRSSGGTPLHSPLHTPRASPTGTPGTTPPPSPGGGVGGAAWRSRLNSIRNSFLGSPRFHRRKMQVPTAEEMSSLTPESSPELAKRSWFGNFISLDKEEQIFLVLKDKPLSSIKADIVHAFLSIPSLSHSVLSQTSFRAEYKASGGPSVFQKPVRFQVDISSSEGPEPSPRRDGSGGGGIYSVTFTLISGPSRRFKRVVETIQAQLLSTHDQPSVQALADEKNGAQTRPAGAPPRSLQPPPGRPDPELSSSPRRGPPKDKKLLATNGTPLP
The note with it: read-out: %-inhibition BRSK1.

Assay [2] has as its target panel of 255 wild-type kinases (Homo sapiens, UniProt Q13555). The following applies: read-out: %-inhibition CaMK2γ.
For assay [3], the target named is T2, panel of 255 wild-type kinases (Homo sapiens, UniProt Q9UL54).
T2 sequence (Q9UL54 1-1235): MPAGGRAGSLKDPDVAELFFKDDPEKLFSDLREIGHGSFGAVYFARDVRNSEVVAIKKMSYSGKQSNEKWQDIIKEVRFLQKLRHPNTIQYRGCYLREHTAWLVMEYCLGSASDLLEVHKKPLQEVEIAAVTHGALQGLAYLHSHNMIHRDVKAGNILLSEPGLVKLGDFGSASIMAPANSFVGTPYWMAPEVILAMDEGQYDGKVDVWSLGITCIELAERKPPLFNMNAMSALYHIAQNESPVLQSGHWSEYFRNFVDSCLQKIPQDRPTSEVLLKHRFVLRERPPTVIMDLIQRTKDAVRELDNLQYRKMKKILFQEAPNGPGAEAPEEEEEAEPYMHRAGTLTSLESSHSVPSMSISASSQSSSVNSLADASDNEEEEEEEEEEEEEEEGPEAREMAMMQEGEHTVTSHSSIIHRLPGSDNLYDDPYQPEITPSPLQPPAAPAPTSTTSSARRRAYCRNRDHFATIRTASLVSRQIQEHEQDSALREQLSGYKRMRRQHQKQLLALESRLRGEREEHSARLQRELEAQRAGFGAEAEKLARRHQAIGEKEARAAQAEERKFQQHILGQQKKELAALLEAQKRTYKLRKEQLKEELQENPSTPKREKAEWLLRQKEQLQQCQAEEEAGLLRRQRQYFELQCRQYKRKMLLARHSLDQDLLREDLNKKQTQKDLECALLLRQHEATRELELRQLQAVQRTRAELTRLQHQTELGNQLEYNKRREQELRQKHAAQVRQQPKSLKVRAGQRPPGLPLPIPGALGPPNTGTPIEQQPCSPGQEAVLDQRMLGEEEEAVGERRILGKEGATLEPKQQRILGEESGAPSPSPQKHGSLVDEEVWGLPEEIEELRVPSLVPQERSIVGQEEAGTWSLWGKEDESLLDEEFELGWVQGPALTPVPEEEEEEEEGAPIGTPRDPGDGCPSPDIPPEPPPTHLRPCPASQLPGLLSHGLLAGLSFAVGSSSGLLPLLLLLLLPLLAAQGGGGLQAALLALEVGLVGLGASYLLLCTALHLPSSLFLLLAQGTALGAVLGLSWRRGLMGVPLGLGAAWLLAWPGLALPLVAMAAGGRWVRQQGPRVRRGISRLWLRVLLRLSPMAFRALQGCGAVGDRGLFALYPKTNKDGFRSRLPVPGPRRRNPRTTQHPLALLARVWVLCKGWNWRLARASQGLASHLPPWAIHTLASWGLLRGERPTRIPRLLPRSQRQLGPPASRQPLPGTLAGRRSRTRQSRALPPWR
The following applies: read-out: %-inhibition at 1 µmol/L, TAOK2.

Setting [4] is: BRSK1 kinase assay, 1 µmol/L single concentration.
Where [5] appears, read: CaMK2γ kinase assay, 1 µmol/L single concentration.
The mark [6] stands for this setting: kinase TAOK2, 1 µmol/L single concentration.

Read-outs that look alike come from different tables or passages of the source.

With `Cc1nc(NC(=O)N2CCC[C@H]2C(N)=O)sc1-c1ccnc(C(C)(C)C(F)(F)F)c1` [alpelisib], the inhibition at 1 µM in assay [1] (setting [4]) is 12%; in assay [2] (setting [5]), 0.455%; in assay [3] (setting [6]), -1.44%.

In the case of `Cn1cc(-c2cc3c(N4CCN(c5ncc([C@@](C)(N)c6ccc(F)cc6)cn5)CC4)ncnn3c2)cn1` [avapritinib], the inhibition at 1 µM is 8.49% in assay [1] (setting [4]), -4% in assay [2] (setting [5]) and 6% in assay [3] (setting [6]).

In the case of `Cn1cnc2c(F)c(Nc3ccc(Br)cc3F)c(C(=O)NOCCO)cc21` [binimetinib], the figures for the inhibition at 1 µM in assay [1] (setting [4]), in assay [2] (setting [5]) and in assay [3] (setting [6]) were -0.585%, -3.65% and 0.465%, respectively.

`CNC(=O)c1ccc(-c2cnc3ncc(Cc4ccc5ncccc5c4)n3n2)cc1F` [capmatinib]: the results for the inhibition at 1 µM in assay [1], in assay [2] and in assay [3] were 0.113%, -1.68% and 3%, respectively.

As to `COc1cc2ncnc(Nc3ccc(F)c(Cl)c3)c2cc1NC(=O)/C=C/CN1CCCCC1` [dacomitinib], the inhibition at 1 µM stood at 14% in assay [1] (setting [4]), 2.37% in assay [2] (setting [5]) and 1% in assay [3] (setting [6]).

In the case of `C[C@H](Nc1ncnc2nc[nH]c12)c1cc2cccc(Cl)c2c(=O)n1-c1ccccc1` [duvelisib], the values for the inhibition at 1 µM in assay [1] (setting [4]), in assay [2] (setting [5]) and in assay [3] (setting [6]) were 0.274%, 0.463% and -0.0517%, respectively.

For `COC(=O)N[C@@H](C)CNc1nccc(-c2cn(C(C)C)nc2-c2cc(Cl)cc(NS(C)(=O)=O)c2F)n1` [encorafenib], the inhibition at 1 µM in assay [1] (setting [4]) is 1.38%; in assay [2] (setting [5]) it was -3.25%; in assay [3] (setting [6]) it was -0.719%.

As for `CN1CCN(c2ccc(C(=O)Nc3n[nH]c4ccc(Cc5cc(F)cc(F)c5)cc34)c(NC3CCOCC3)c2)CC1` [entrectinib], the figures for the inhibition at 1 µM in assay [1] (setting [4]), in assay [2] (setting [5]) and in assay [3] (setting [6]) were 8%, 17% and 3%, respectively.

As for `CCc1nc(C(N)=O)c(Nc2ccc(N3CCC(N4CCN(C)CC4)CC3)c(OC)c2)nc1NC1CCOCC1` [gilteritinib], the values for the inhibition at 1 µM in assay [1] (setting [4]), in assay [2] (setting [5]) and in assay [3] (setting [6]) were 23%, 62% and 9%, respectively.

On to `CCN1CCN(c2ccc(Nc3cc(N(C)C(=O)Nc4c(Cl)c(OC)cc(OC)c4Cl)ncn3)cc2)CC1` [infigratinib], for which the results for the inhibition at 1 µM in assay [1] (setting [4]), in assay [2] (setting [5]) and in assay [3] (setting [6]) were 1.2%, -3.37% and 91%, respectively.

Consider `O=C(Nc1cnn2ccc(N3CCC[C@@H]3c3cc(F)ccc3F)nc12)N1CC[C@H](O)C1` [larotrectinib], for which the inhibition at 1 µM is -0.915% in assay [1] (setting [4]), -0.126% in assay [2] (setting [5]) and 3.76% in assay [3] (setting [6]).

For `C[C@H]1Oc2cc(cnc2N)-c2c(nn(C)c2C#N)CN(C)C(=O)c2ccc(F)cc21` [lorlatinib], the inhibition at 1 µM was 29% in assay [1] (setting [4]), 10% in assay [2] (setting [5]) and -1.11% in assay [3] (setting [6]).

Regarding `CCN1C(=O)N(c2c(F)c(OC)cc(OC)c2F)Cc2cnc3[nH]c(CN4CCOCC4)cc3c21` [pemigatinib], the inhibition at 1 µM stood at 0.395% in assay [1] (setting [4]), 5% in assay [2] (setting [5]) and 48% in assay [3] (setting [6]).

`FC(F)(F)c1ccc(CNc2ccc(Cc3c[nH]c4ncc(Cl)cc34)cn2)cn1` [pexidartinib]: the inhibition at 1 µM in assay [1] (setting [4]) came to 9%; in assay [2] (setting [5]), 0.769%; in assay [3] (setting [6]) it was 4%.

As to `CO[C@]1(C(=O)N[C@@H](C)c2ccc(-n3cc(F)cn3)nc2)CC[C@H](c2nc(C)cc(Nc3cc(C)[nH]n3)n2)CC1` [pralsetinib], the inhibition at 1 µM is 12% in assay [1] (setting [4]), -3% in assay [2] (setting [5]) and 14% in assay [3] (setting [6]).

For the molecule `CCn1c(=O)c(-c2cc(NC(=O)Nc3ccccc3)c(F)cc2Br)cc2cnc(NC)cc21` [ripretinib], the inhibition at 1 µM in assay [1] (setting [4]) was 1.77%; in assay [2] (setting [5]), 0.397%; in assay [3] (setting [6]), 89%.

As to `COc1ccc(CN2C3CC2CN(c2ccc(-c4cc(OCC(C)(C)O)cn5ncc(C#N)c45)cn2)C3)cn1` [selpercatinib], the inhibition at 1 µM in assay [1] (setting [4]) turned out to be 36%; in assay [2] (setting [5]), 0.226%; in assay [3] (setting [6]) it was 5.33%.

For `Cn1cnc2c(F)c(Nc3ccc(Br)cc3Cl)c(C(=O)NOCCO)cc21` [selumetinib], the inhibition at 1 µM is -1.75% in assay [1] (setting [4]), -3% in assay [2] (setting [5]) and 3.77% in assay [3] (setting [6]).

Turning to `Cc1cc(Nc2ncnc3ccc(NC4=NC(C)(C)CO4)cc23)ccc1Oc1ccn2ncnc2c1` [tucatinib], the inhibition at 1 µM in assay [1] (setting [4]) was 0.339%; in assay [2] (setting [5]) it was -5%; in assay [3] (setting [6]), 5%.

On to `C=CC(=O)N1CCC([C@@H]2CCNc3c(C(N)=O)c(-c4ccc(Oc5ccccc5)cc4)nn32)CC1` [zanubrutinib], for which the results for the inhibition at 1 µM in assay [1] (setting [4]), in assay [2] (setting [5]) and in assay [3] (setting [6]) were -1.87%, 1.6% and 4%, respectively.
